Measurements reported in ChEMBL document CHEMBL5729562, “Proteasome activity enhancing compounds” (2023).

Target: Ubiquitin carboxyl-terminal hydrolase 14 (Homo sapiens, UniProt P54578)
Test: Usp14 Inhibition Assay: Usp14 Inhibition Assay was described in B. H. Lee et al. Nature 2010, 467 (9), 179.

Chain of Ubiquitin carboxyl-terminal hydrolase 14 (P54578 whole entry): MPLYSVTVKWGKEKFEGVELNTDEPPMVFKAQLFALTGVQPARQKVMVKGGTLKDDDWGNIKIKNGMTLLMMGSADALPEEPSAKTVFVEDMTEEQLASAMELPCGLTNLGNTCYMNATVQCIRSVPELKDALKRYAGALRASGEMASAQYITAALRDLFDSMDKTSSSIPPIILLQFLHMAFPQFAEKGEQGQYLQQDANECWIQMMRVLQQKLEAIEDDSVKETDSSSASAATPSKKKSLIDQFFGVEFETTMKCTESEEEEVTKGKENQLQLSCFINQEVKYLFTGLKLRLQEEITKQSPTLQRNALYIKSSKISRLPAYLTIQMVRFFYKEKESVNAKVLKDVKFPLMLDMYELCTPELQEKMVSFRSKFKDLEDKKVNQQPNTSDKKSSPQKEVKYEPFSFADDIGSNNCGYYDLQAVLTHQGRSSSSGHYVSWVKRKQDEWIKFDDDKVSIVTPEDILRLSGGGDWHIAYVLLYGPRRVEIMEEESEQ

| SMILES | IC50 [nM] |
| --- | --- |
| Cc1c(C(=O)CN2C3CCC2CC3)cc(C#CCCC#N)n1-c1ccc(C#N)cc1 | < 50 |
| Cc1c(C(=O)CN2C3CC4CC2CC(C3)O4)cc(CCCCC#N)n1-c1ccc(C#N)cc1 | < 50 |
